The subject of this assay is nitrification in the soil. Description: Soil column study with static gas chambers (Study 2-14): nitrate-N and N2O emissions. Here is the method:
To determine the effect of treating the soil with 4-Ethynylanisole on nitrification rate and nitrous oxide emissions, soil column studies with static gas chambers were conducted. The experiment was conducted in cylindrical PVC containers (Diameter=186 mm, Height=240 mm). The containers were filled with soil to half of the container's height (120 mm), leaving 120 mm headspace. The soil was Templeton sandy loam collected from Lincoln University Research Dairy Farm. It was screened using a 5 mm sieve and air-dried to the required moisture level and packed to bulk density of 1 g/cm3.
The experiment was conducted under controlled conditions. The temperature of the soil columns were maintained at around 12° C. by using a water bath to control the temperature.
The treatments included Control (Water), Control (animal urine), Control (urine+DMSO), Control (urine+DCD at 10 kg/ha) and urine+4-Ethynylanisole (10 kg/ha) in DMSO. Synthetic cow urine was applied at 700 kg N/ha (comprising about 87% urea-N and 13% glycine-N), and 4-Ethynylanisole was applied at 10 kg/ha. There were two sets of cores for each treatment, one set were fitted with static gas chambers with removable lids for nitrous oxide sampling, and the other set used for soil sampling. The urine was sprayed to the surface of the soil simulating urine deposition by a grazing animal; DMSO, or DCD or 4-Ethynylanisole mixed with DMSO was also sprayed onto the urine treated soils to simulate the treatment of urine patches. Nitrous oxide gas measurements followed these treatments—as is detailed further below.
For the soil columns that were set up for taking soil samples for analysis of mineral nitrogen, the different treatments were mixed with the soil for soil sampling. Soil moisture was adjusted to 100% field capacity (FC) and maintained between 80 and 100% FC over the duration of the experiment.
Nitrous oxide (N2O) gas sampling was conducted twice a week using the standard procedure (Di et al., 2007). Vials were evacuated prior to sampling. Three gas samples were taken with 20 minute intervals between each sampling. Sampling frequency was reduced to once a week when N2O fluxes decreased in intensity.
Soil sampling was conducted on Day 1, 7, 14, 30, and 60. The soil samples were analysed for mineral nitrogen.

As for `C#Cc1ccc(OC)cc1` [4-Ethynylanisole, 1-ethynyl-4-methoxybenzene], the “N2O—N emissions lower than urine alone control” value (10 kg/ha sprayed to soil surface, soil column) turned out to be 93.3%. The “soil nitrate-N concentration compared with urine control” value (10 kg/ha, day 60) is given as “significantly lower nitrate-N concentrations”. Further, where the note is “both at 10 kg/ha”, the “nitrous oxide reduction compared with DCD” value is given as “much greater than that by DCD”. The “inhibiting nitrate production compared with DCD” value (both at 10 kg/ha, day 60) is reported as “much more potent than DCD”.

The values above are taken from patent publication US11578013B2, “Nitrification inhibitors” (Lincoln University, priority 2020, dated 2023).
